{
  "source": "patent US20090246212A1",
  "about": "“DEVELOPMENT OF METHOD FOR SCREENING FOR DRUG CAPABLE OF IMPROVING PRODUCTION OF REGULATORY T CELLS AND METHOD FOR PRODUCING REGULATORY T CELLS USING IMMUNOSUPPRESSIVE MACROLIDE ANTIBIOTIC” (KYOTO UNIVERSITY, priority 2005, published 2009)",
  "format_in_all_cases": "cell-based, human",
  "key": {"[1]": {"system": "CD45RA^+CD25^−CD4^+ T cell line", "assay": "Suppression assay ([^3H] thymidine uptake) of the everolimus-cultured CD45RA^+CD25^−CD4^+ T cell line", "conditions": "cultivation in the presence of everolimus, 50 days; compared with the control", "method": "(§1) CD45RA^+CD25^+CD4^+ T cells or CD45RA^+CD25^−CD4^+ T cells in human peripheral blood (5×10̂4 cells/well) were stimulated with 1×10̂5 cells/well radiated (40 Gy) allogenic PBMCs in a 96-well round-bottomed culture plate containing 200 μl per well of a proliferation medium (AlyS505N (produced by Cell Science & Technology Institute) supplemented with 2% human AB serum) in the presence of human IL-2 (1000 U/ml, produced by Cell Science & Technology Institute).\n(§2) Everolimus (100 nM or 1000 nM, produced by Novartis Pharma) was added to the medium from the start of cultivation. The everolimus was purified as follows: Certican 0.25 mg tablet (produced by Novartis Pharma) was milled and dissolved in acetone. Then, the solution was filtered, the filtrate was evaporated while rotating, and the precipitate was vacuum-dried. […]\n(§3) The indicated number of cells of the expanded CD45RA^+CD25^+CD4^+ T cell line or expanded CD45RA^+CD25^−CD4^+ T cell line, alone or along with autologous responder CD4^+ T cells (5×10̂4 cells/well), were stimulated with radiated (40 Gy) PBMCs (1×10̂5 cells/well) obtained from the same individual as the allogenic PBMCs used for the cultivation, in a proliferation medium in a round-bottomed 96-well microplate. […] Subsequently, the cells were recovered, and [^3H] thymidine uptake was measured using 1450 Microbeta TriLux (Wallac)."}, "[2]": {"system": "CD45RA^+CD25^−CD4^+ T cells", "assay": "Expansion culture of CD45RA^+CD25^−CD4^+ T cells with allogenic PBMCs and IL-2, everolimus added", "conditions": "everolimus 100 nM or 1000 nM from the start of cultivation", "method": "as §1\n(§4) Everolimus (100 nM or 1000 nM, produced by Novartis Pharma) was added to the medium from the start of cultivation. The everolimus was purified as follows: Certican 0.25 mg tablet (produced by Novartis Pharma) was milled and dissolved in acetone. Then, the solution was filtered, the filtrate was evaporated while rotating, and the precipitate was vacuum-dried. The extract obtained was dissolved in DMF and separated by HPLC (column C18 4 μm, 150×2.1 mm). After separation, the everolimus was freeze-dried and purified.\n(§5) Every 3 to 4 days, half of the medium was replaced with a fresh proliferation medium containing IL-2. If necessary, the cells were separated and repeatedly re-stimulated with radiated (40 Gy) allogenic PBMC every 10 to 14 days. Fifty days after the start of cultivation, the cells were collected and used for functional assay."}, "[3]": {"system": "CD45RA^+CD25^+CD4^+ T cell line", "assay": "Suppression assay ([^3H] thymidine uptake) of the everolimus-cultured CD45RA^+CD25^+CD4^+ T cell line", "conditions": "cultivation in the presence of everolimus, 50 days; compared with controls", "method": "as §1, §2, §3"}, "[4]": {"system": "CD45RA^+CD25^+CD4^+ T cells", "assay": "Expansion culture of CD45RA^+CD25^+CD4^+ T cells with allogenic PBMCs and IL-2, everolimus added", "conditions": "everolimus 1000 nM from the start of cultivation", "method": "as §1, §4, §5"}},
  "data": [
    {"smiles": "CO[C@H]1C[C@@H]2CC[C@@H](C)[C@@](O)(O2)C(=O)C(=O)N2CCCC[C@H]2C(=O)O[C@H]([C@H](C)C[C@@H]2CC[C@@H](OCCO)[C@H](OC)C2)CC(=O)[C@H](C)/C=C(\\C)[C@@H](O)[C@@H](OC)C(=O)[C@H](C)C[C@H](C)/C=C/C=C/C=C/1C", "note": "[everolimus, 42-O-(2-hydroxy)ethyl-rapamycin]", "values": [
      {"measurement": "T cell line's effect on proliferation of CD4^+ T cells in response to alloantigen-presenting cells", "setting": "[1]", "result": "more strongly suppressed"},
      {"measurement": "proliferation of CD45RA^+CD25^−CD4^+ T cells", "setting": "[2]", "result": "enhanced"},
      {"measurement": "T cell line's effect on proliferation of CD4^+ T cells in response to alloantigen-presenting cells", "setting": "[3]", "result": "more strongly suppressed"},
      {"measurement": "proliferation of CD45RA^+CD25^+CD4^+ T cells", "setting": "[4]", "result": "suppressed"}
    ]}
  ]
}
